Where “and” joins values, the source holds several entries; their conditions need not be identical. Identical values can stand only once. Like-named read-outs stand apart in the source and are kept apart here.
Legend:
non-expressing oocytes [1] = assay: cells; assay type: cell-based, Xenopus laevis
Source text: (§1) The orientation of PfCRT in the parasite’s DV membrane, and also in the oocyte plasma membrane, is such that its N- and C-termini extend into the cytosol. The oocytes were suspended in a reaction buffer adjusted to pH 5.5 to mimic the pH of the DV lumen[1],[2]. In this scenario, the transport of a substrate via PfCRT from the acidic extracellular solution into the oocyte cytosol[15] is analogous to the parasite’s PfCRT-mediated efflux of a substrate from the acidic DV and into the cytosol. Unless specified otherwise, this is the direction in which substrate transport was measured in the oocyte assays.
(§2) Unless specified otherwise, the transport assays were conducted over 1.5 h at 27.5 °C and the reaction buffer was ND96 (96 mM NaCl, 2 mM KCl, 1 mM MgCl2, 1.8 mM CaCl2, 10 mM MES and 10 mM Tris-base) at pH 5.5.
(§3) Ten oocytes were washed twice with the relevant ND96 buffer. […] The assay was terminated by removing the reaction buffer and washing the oocytes with ice-cold ND96 buffer. The oocytes were lysed in 10% (w/v) sodium dodecyl sulfate (SDS) and the radioactivity accumulated within each oocyte was measured with a MicroBeta^2 microplate liquid scintillation analyser (PerkinElmer).
(§4) At least four independent experiments were performed (on different days and using oocytes from different frogs), and within each experiment measurements were made from ten oocytes per treatment.

PfCRT^3D7 [2] = target: T1, PfCRT^3D7 (Plasmodium falciparum, UniProt Q8IBZ9); assay: cell-based; assay type: cell-based
Source text: as §1, §2, §3, §4

non-expressing oocytes [3] = assay type: cell-based, Xenopus laevis; conditions: for Trans-stimulation data: total [3H]CQ transport: normalised to the oocyte type control (control = 100)
Procedure: as §2
The intracellular concentrations were calculated using previous estimates of the volume of stage V–VI oocytes (~400 nL[60]). […] The oocytes were injected with VF-6 suspended in 25 nL ND96 buffer adjusted to pH 5.0, 5.5, 6.0 or 7.0, which corresponded to the injection of 2.5–250 fmol of H^+. The Na^+-dependence of the trans-stimulatory effect of VF-6 was assessed by injecting the oocytes with VF-6 suspended in ND96 buffer (pH 5.5) or a Na^+-free version of this buffer (the Na^+ was replaced with choline).
as §4

PfCRT^3D7 [4] = target: T1, PfCRT^3D7; assay: cell-based; assay type: cell-based; conditions: for Trans-stimulation data: total [3H]CQ transport: normalised to the oocyte type control (control = 100)
Method in brief: (§5)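 Transport measured in Xenopus oocytes expressing the transporters, 1.5 h at 27.5 °C in ND96 pH 5.5 unless noted. For trans-stimulation, VF-6 injected in 25 nL ND96 at pH 5.0–7.0 or Na^+-free (choline) buffer; intracellular levels based on ~400 nL oocyte volume. Ten oocytes per treatment, ≥4 experiments.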

PfNT1 = target: T2, PfNT1 (Plasmodium falciparum, UniProt Q8IDM6); assay: cell-based; assay type: cell-based; conditions: for Trans-stimulation data: total [3H]CQ transport: normalised to the oocyte type control (control = 100)
T2 construct: expressed in transfected cells; host or cells: Xenopus laevis oocytes (stage V-VI), cRNA-injected
Method in brief: as §5

PfCRT^Dd2 [5] = target: T3, PfCRT^Dd2 (Plasmodium falciparum, UniProt Q9N623, A220S/I356T/K76T/M74I/N326S/N75E/Q271E/R371I); assay: cell-based; assay type: cell-based; conditions: for Trans-stimulation data: total [3H]CQ transport: normalised to the oocyte type control (control = 100); for PfCRT-mediated [3H]CQ transport, trans-stimulation by injected solute, PfCRTDd2: background subtracted
Method in brief: as §5

PfCRT^Ecu1110 [6] = target: T4, PfCRT^Ecu1110 (Plasmodium falciparum, UniProt Q9N623, A220S/I356L/K76T/N326D); assay: cell-based; assay type: cell-based; conditions: for Trans-stimulation data: total [3H]CQ transport: normalised to the oocyte type control (control = 100)
Method in brief: as §5

PfCRT^Dd2 [7] = target: T3, PfCRT^Dd2; assay: [3H]CQ uptake into Xenopus oocytes, cis-inhibition by unlabelled solute; assay type: cell-based; conditions: PfCRTDd2 oocytes, background [3H]CQ accumulation subtracted, normalised to oocyte type control
Method in brief: (§6)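 Radioactivity accumulated per oocyte, read by liquid scintillation after 10% SDS lysis, served as the uptake measure. Incubations ran 1.5 h at 27.5 °C in ND96 at pH 5.5, matching digestive-vacuole acidity.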

PfCRT^Ecu1110 [8] = target: T4, PfCRT^Ecu1110; assay: as above; assay type: cell-based; conditions: PfCRTEcu1110 oocytes, background [3H]CQ accumulation subtracted, normalised to oocyte type control
Method in brief: as §6

[9] = non-expressing oocytes, footnote b: highest intracellular concentration tested was 30 mM (solubility)
[10] = PfCRT3D7 oocytes, footnote b: highest intracellular concentration tested was 30 mM (solubility)
[11] = PfCRTDd2 oocytes, footnote b: highest intracellular concentration tested was 30 mM (solubility)
[12] = footnote b: due to solubility the highest intracellular concentration tested was 30 mM
[13] = trans-stimulation, footnote b: due to solubility the highest intracellular concentration tested was 30 mM, normalised to the oocyte type control = 100
[14] = PfCRTEcu1110 oocytes, footnote b: highest intracellular concentration tested was 30 mM (solubility)
[15] = PfNT1 oocytes, footnote b: highest intracellular concentration tested was 30 mM (solubility)
[16] = footnote b: highest intracellular concentration tested was 30 mM (solubility), mean ± SEM, SEM

T2 sequence (Q8IDM6 whole entry): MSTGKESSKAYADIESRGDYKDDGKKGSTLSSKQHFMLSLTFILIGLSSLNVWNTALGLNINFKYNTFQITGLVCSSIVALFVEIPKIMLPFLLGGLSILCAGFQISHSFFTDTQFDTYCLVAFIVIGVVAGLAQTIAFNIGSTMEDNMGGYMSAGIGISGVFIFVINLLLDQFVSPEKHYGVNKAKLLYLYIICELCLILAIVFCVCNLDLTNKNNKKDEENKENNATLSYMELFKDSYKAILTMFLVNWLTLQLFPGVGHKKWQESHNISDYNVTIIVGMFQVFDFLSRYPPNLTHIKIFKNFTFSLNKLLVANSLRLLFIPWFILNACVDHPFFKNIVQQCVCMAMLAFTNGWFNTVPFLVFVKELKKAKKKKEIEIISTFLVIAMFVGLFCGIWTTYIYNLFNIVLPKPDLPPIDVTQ
T1 sequence (Q8IBZ9 59-398): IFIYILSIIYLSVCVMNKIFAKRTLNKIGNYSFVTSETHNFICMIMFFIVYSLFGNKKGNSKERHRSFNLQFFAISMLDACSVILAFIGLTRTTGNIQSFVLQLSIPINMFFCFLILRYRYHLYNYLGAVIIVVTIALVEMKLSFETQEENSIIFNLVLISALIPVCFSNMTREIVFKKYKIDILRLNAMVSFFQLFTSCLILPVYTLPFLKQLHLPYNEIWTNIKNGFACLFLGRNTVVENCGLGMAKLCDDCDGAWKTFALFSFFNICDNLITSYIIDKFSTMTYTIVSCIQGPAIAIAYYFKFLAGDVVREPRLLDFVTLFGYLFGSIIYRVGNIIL
T3 sequence (Q9N623 whole entry A220S/I356T/K76T/M74I/N326S/N75E/Q271E/R371I): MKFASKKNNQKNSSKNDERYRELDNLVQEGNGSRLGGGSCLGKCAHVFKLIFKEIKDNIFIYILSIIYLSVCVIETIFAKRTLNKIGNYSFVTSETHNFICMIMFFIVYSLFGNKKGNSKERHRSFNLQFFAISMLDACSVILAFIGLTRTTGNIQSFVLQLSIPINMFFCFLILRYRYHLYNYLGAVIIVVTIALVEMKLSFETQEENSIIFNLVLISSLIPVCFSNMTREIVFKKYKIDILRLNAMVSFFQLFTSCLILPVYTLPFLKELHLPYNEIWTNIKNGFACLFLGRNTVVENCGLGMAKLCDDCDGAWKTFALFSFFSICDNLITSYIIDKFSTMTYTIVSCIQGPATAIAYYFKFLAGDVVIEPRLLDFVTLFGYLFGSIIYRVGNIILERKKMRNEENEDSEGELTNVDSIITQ
T4 sequence (Q9N623 whole entry A220S/I356L/K76T/N326D): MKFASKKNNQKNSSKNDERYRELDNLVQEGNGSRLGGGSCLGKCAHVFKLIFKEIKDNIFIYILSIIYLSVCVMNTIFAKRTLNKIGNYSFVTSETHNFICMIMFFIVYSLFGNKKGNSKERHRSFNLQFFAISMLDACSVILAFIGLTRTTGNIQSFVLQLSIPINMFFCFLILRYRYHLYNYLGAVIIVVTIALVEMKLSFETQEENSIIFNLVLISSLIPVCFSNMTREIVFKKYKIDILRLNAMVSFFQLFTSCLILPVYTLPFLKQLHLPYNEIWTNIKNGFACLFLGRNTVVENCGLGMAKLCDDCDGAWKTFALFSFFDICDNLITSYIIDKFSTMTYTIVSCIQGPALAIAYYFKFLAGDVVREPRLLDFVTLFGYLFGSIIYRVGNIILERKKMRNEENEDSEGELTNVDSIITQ

## Cc1ncc(C[n+]2csc(CCO)c2C)c(N)n1 [Thiamine (Vitamin B1)]
non-expressing oocytes [1]
  Cis-inhibition data: total [3H]CQ transport, normalised to the oocyte type control: 99 ± 5.1 and 98 ± 5.2 and 100 ± 4.6
  Total [3H]CQ transport, cis-inhibition by solute: 2.7 ± 0.05 and 4.2 ± 0.03 and 2.2 ± 0.06
PfCRT^3D7 [2]
  Cis-inhibition data: total [3H]CQ transport, normalised to the oocyte type control: 99 ± 9.3 and 99 ± 3.7 and 99 ± 3.0
  Total [3H]CQ transport, cis-inhibition by solute: 2.8 ± 0.03 and 2.7 ± 0.07 and 2.8 ± 0.05
non-expressing oocytes [3]
  Total [3H]CQ transport, trans-stimulation by injected solute: 2.9 ± 0.04 and 3.9 ± 0.05
  Trans-stimulation data: total [3H]CQ transport, normalised to the oocyte type control: 100 ± 3.7 and 99 ± 4.8
PfCRT^3D7 [4]
  PfCRT-mediated [3H]CQ transport, trans-stimulation by injected solute, PfCRT3D7: 0.1 ± 0.01
  Total [3H]CQ transport, trans-stimulation by injected solute: 3.0 ± 0.05 and 3.0 ± 0.03
  Trans-stimulation data: PfCRT-mediated [3H]CQ transport: 99 ± 2.9 and 98 ± 1.9
  Trans-stimulation data: total [3H]CQ transport, normalised to the oocyte type control: 101 ± 3.5 and 100 ± 3.6
PfNT1
  Total [3H]CQ transport, trans-stimulation by injected solute: 3.7 ± 0.08 and 2.7 ± 0.06
  Trans-stimulation data: total [3H]CQ transport, normalised to the oocyte type control: 101 ± 3.9

## DDEGDDDPVPLPNVNA [DA-16, additional peptide, 16 residues]
non-expressing oocytes [3]; [9]
  Total [3H]CQ transport, trans-stimulation by injected solute: 2.6 ± 0.08b % of the PfCRTDd2 control
  Trans-stimulation data: total [3H]CQ transport: 98 ± 3.5b
PfCRT^3D7 [4]; 2nd of 6 trans-stimulation columns, footnote b: due to solubility the highest intracellular concentration tested was 30 mM, normalised to the oocyte type control = 100
  Trans-stimulation data: PfCRT-mediated [3H]CQ transport: 97 ± 2.2b
PfCRT^3D7 [4]; [10]
  Total [3H]CQ transport, trans-stimulation by injected solute: 3.1 ± 0.02b % of the PfCRTDd2 control
  Trans-stimulation data: total [3H]CQ transport: 100 ± 4.5b
PfCRT^Dd2 [5]; [11]
  Total [3H]CQ transport, trans-stimulation by injected solute: 99 ± 2.7b % of the PfCRTDd2 control
  Trans-stimulation data: total [3H]CQ transport: 99 ± 2.7b
PfCRT^Dd2 [5]; [12]
  PfCRT-mediated [3H]CQ transport, trans-stimulation by injected solute, PfCRTDd2: 100 ± 1.9b % of PfCRTDd2 control
PfCRT^Dd2 [5]; [13]
  Trans-stimulation data: PfCRT-mediated [3H]CQ transport: 100 ± 1.9b
PfCRT^Ecu1110 [6]; [14]
  Total [3H]CQ transport, trans-stimulation by injected solute: 33 ± 1.8b % of the PfCRTDd2 control
  Trans-stimulation data: total [3H]CQ transport: 99 ± 3.7b
PfCRT^Ecu1110 [6]; [13]
  Trans-stimulation data: PfCRT-mediated [3H]CQ transport: 98 ± 2.9b
PfNT1; [15]
  Total [3H]CQ transport, trans-stimulation by injected solute: 3.3 ± 0.07b % of the PfCRTDd2 control
  Trans-stimulation data: total [3H]CQ transport: 99 ± 2.4b

## YFPHFDLS [YS-8]
PfCRT^Dd2 [7]; [test solute] = 0.5 mM
  PfCRT-mediated [3H]CQ transport, cis-inhibition (% PfCRTDd2 control): 38 ± 2.7 % PfCRTDd2 control
PfCRT^Dd2 [7]; [test solute] = 1 mM
  PfCRT-mediated [3H]CQ transport, cis-inhibition (% PfCRTDd2 control): 28 ± 0.5 % PfCRTDd2 control
PfCRT^Dd2 [7]; [test solute] = 2 mM
  PfCRT-mediated [3H]CQ transport, cis-inhibition (% PfCRTDd2 control): 17 ± 0.1 % PfCRTDd2 control
PfCRT^Ecu1110 [8]; [test solute] = 0.5 mM
  PfCRT-mediated [3H]CQ transport, cis-inhibition (% PfCRTEcu1110 control): 43 ± 3.2 % PfCRTEcu1110 control
PfCRT^Ecu1110 [8]; [test solute] = 1 mM
  PfCRT-mediated [3H]CQ transport, cis-inhibition (% PfCRTEcu1110 control): 33 ± 2.6 % PfCRTEcu1110 control
PfCRT^Ecu1110 [8]; [test solute] = 2 mM
  PfCRT-mediated [3H]CQ transport, cis-inhibition (% PfCRTEcu1110 control): 25 ± 1.5 % PfCRTEcu1110 control
non-expressing oocytes [3]; [16]
  Trans-stimulation: total [3H]CQ transport, non-expressing oocytes: 2.8 ± 0.05b % of PfCRTDd2 control
non-expressing oocytes [3]; [9]
  Trans-stimulation data: total [3H]CQ transport: 100 ± 2.8b
PfCRT^3D7 [4]; [10]
  Trans-stimulation data: total [3H]CQ transport: 100 ± 3.5b
PfCRT^3D7 [4]; [test solute]i = 5 mM (intracellular), PfCRT3D7 oocytes, normalised to oocyte type control
  PfCRT-mediated [3H]CQ transport, trans-stimulation (% PfCRT3D7 control): 96 ± 2.8 % PfCRT3D7 control
PfCRT^3D7 [4]; cell marked b: highest intracellular concentration tested was 30 mM due to solubility, PfCRT3D7 oocytes
  PfCRT-mediated [3H]CQ transport, trans-stimulation (% PfCRT3D7 control): 98 ± 2.8b % PfCRT3D7 control
PfCRT^3D7 [4]; [16]
  Trans-stimulation: total [3H]CQ transport, PfCRT3D7 oocytes: 3.1 ± 0.04b % of PfCRTDd2 control
PfCRT^Dd2 [5]; [11]
  Trans-stimulation data: total [3H]CQ transport: 99 ± 2.8b
PfCRT^Dd2 [5]; [test solute]i = 5 mM (intracellular), PfCRTDd2 oocytes, normalised to oocyte type control
  PfCRT-mediated [3H]CQ transport, trans-stimulation (% PfCRTDd2 control): 98 ± 1.1 % PfCRTDd2 control
PfCRT^Dd2 [5]; cell marked b: highest intracellular concentration tested was 30 mM due to solubility, PfCRTDd2 oocytes
  PfCRT-mediated [3H]CQ transport, trans-stimulation (% PfCRTDd2 control): 97 ± 1.7b % PfCRTDd2 control
PfCRT^Dd2 [5]; [12]
  PfCRT-mediated [3H]CQ transport, trans-stimulation by injected solute, PfCRTDd2: 97 ± 1.7b % of PfCRTDd2 control
PfCRT^Dd2 [5]; [16]
  Trans-stimulation: total [3H]CQ transport, PfCRTDd2 oocytes: 99 ± 2.8b % of PfCRTDd2 control
PfCRT^Ecu1110 [6]; [14]
  Trans-stimulation data: total [3H]CQ transport: 99 ± 3.8b
PfCRT^Ecu1110 [6]; [test solute]i = 5 mM (intracellular), PfCRTEcu1110 oocytes, normalised to oocyte type control
  PfCRT-mediated [3H]CQ transport, trans-stimulation (% PfCRTEcu1110 control): 98 ± 3.1 % PfCRTEcu1110 control
PfCRT^Ecu1110 [6]; cell marked b: highest intracellular concentration tested was 30 mM due to solubility, PfCRTEcu1110 oocytes
  PfCRT-mediated [3H]CQ transport, trans-stimulation (% PfCRTEcu1110 control): 97 ± 1.5b % PfCRTEcu1110 control
PfCRT^Ecu1110 [6]; [16]
  Trans-stimulation: total [3H]CQ transport, PfCRTEcu1110 oocytes: 32 ± 1.9b % of PfCRTDd2 control
PfNT1; [15]
  Trans-stimulation data: total [3H]CQ transport: 98 ± 3.5b
PfNT1; [16]
  Trans-stimulation: total [3H]CQ transport, PfNT1 oocytes: 3.3 ± 0.08b % of PfCRTDd2 control
